According to patent publication US11477985B2, “Herbicidal mixtures comprising L-glufosinate or its salt and at least one photosynthesis inhibitor” (BASF SE, priority 2017, dated 2022):

Columns and labels:
Assay type in all cases: in vivo
Avena fatua = assay: Post emergence treatment, greenhouse pot test, herbicidal activity against AVEFA
Description: (§1) Synergism can be described as an interaction where the combined effect of two or more compounds is greater than the sum of the individual effects of each of the compounds. The presence of a synergistic effect in terms of percent control, between two mixing partners (X and Y) can be calculated using the Colby equation (Colby, S. R., 1967, Calculating Synergistic and
(§2) When the observed combined control effect is greater than the expected (calculated) combined control effect (E), then the combined effect is synergistic.
(§3) However, the weed control afforded by the compounds, mixtures or compositions is not limited to these species. The analysis of synergism or antagonism between the mixtures or compositions was determined using Colby's equation.
(§4) The culture containers used were plastic flowerpots containing loamy sand with approximately 3.0% of humus as the substrate. The seeds of the test plants were sown separately for each species and/or resistant biotype. For the pre-emergence treatment, the active ingredients, which had been suspended or emulsified in water, were applied directly after sowing by means of finely distributing nozzles. The containers were irrigated gently to promote germination and growth and subsequently covered with transparent plastic hoods until the plants had rooted. This cover caused uniform germination of the test plants, unless this had been impaired by the active ingredients. For the post-emergence treatment, the test plants were first grown to a height of 3 to 15 cm, depending on the plant habit, and only then treated with the active ingredients which had been suspended or emulsified in water. For this purpose, the test plants were either sown directly and grown in the same containers, or they were first grown separately as seedlings and transplanted into the test containers a few days prior to treatment. Depending on the species, the plants were kept at 10-25° C. or 20-35° C., respectively. The test period extended to 20 days after treatment. During this time, the plants were tended, and their response to the individual treatments was evaluated. […]

Abutilon theophrasti = assay: Post emergence treatment, greenhouse pot test, herbicidal activity against ABUTH; details: scale 0 to 100
Description: as §1, §2, §3, §4

Setaria viridis = assay: Post emergence treatment, greenhouse pot test, herbicidal activity against SETVI; details: scale 0 to 100
Description: as §1, §2, §3, §4

CN(C)C(=O)Nc1ccc(Cl)c(Cl)c1 [Diuron, diuron]
Herbicidal activity against AVEFA, Found (Avena fatua; Diuron 125 g ai/ha alone, scale 0 to 100): 20
Herbicidal activity against AVEFA, Found (Avena fatua; Diuron 250 g ai/ha alone, scale 0 to 100): 30

CN(C)C(=O)Nc1cccc(C(F)(F)F)c1 [Fluometuron, fluometuron]
Herbicidal activity against ABUTH, Found (Abutilon theophrasti; Fluometuron 125 g ai/ha alone): 0
Herbicidal activity against ABUTH, Found (Abutilon theophrasti; Fluometuron 250 g ai/ha alone): 20

CP(=O)(O)CC[C@H](N)C(=O)O [L-Glufosinate, (2S)-2-amino-4-[hydroxy(methyl)phosphinoyl]butyric acid]
Herbicidal activity against ABUTH, Found (Abutilon theophrasti; L-Glufosinate 75 g ai/ha alone): 0
Herbicidal activity against SETVI, Found (Setaria viridis; L-Glufosinate 75 g ai/ha alone): 0
Herbicidal activity against SETVI, Found (Setaria viridis; L-Glufosinate 150 g ai/ha alone): 70
Herbicidal activity against AVEFA, Found (Avena fatua; L-Glufosinate 300 g ai/ha alone, scale 0 to 100, mean of two replications): 20

O=C(Nc1ccccc1)Nc1cnns1 [Thidiazuron, thiadizuron]
Herbicidal activity against SETVI, Found (Setaria viridis; Thidiazuron 50 g ai/ha alone): 0
